Data as given in patent publication US20100143364A1, “Chimeric Antibodies, Compositions and Methods for Treating Cocaine-Related Disorders” (Vybion, Inc., priority 2008, published 2010).

Assay: pharmacokinetics of cocaine in plasma after i.v. cocaine HCl
Format: in vivo
Settings: 2-compartment model, no antibody, i.v. cocaine HCl 0.56 mg/kg
Method: The monoclonal antibodies, variants and/or derivatives of the present invention use their binding affinity for cocaine and its derivatives to reduce the concentration of cocaine or its derivatives in the brain. Infused antibodies, variants and/or derivatives also produce a dramatic dose-dependent increase in plasma cocaine concentrations and a concomitant decrease in the brain cocaine concentrations produced by an i.v. injection of cocaine HCI (0.56 mg/kg). […] The anti-cocaine antibodies, variants and/or derivatives of the invention increase the area under the plasma cocaine concentration-time curve (AUC) relative to the AUC in the absence of the anti-cocaine antibodies of the invention. The antibodies, variants and/or derivatives of the present invention decrease cocaine's volume of distribution (l/kg). However, cocaine is still rapidly cleared from plasma and its elimination is described by a single compartment model. The antibodies, variants and/or derivatives also produce a decrease in the cocaine AUC in the brain. Therefore, the effect of the antibodies on plasma and brain cocaine concentrations is predominantly due to a change in the distribution of cocaine with negligible effects on its rate of clearance.

Compound: COC(=O)[C@H]1[C@@H](OC(=O)c2ccccc2)C[C@@H]2CC[C@H]1N2C [cocaine]
- distribution t1/2α: 1.9 min
- terminal elimination t1/2β: 26.1 min
